Reference: patent publication US11111242B2, “Pyrrolo[2,3-d]pyrimidinyl, pyrrolo[2,3-b]pyrazinyl and pyrrolo[2,3-d]pyridinyl acrylamides” (Pfizer Inc., priority 2013, dated 2021)

system: IL-15 induced P-STAT5 in human PBMC (total lymphocytes); assay: PBMC IL-15 Induced P-STAT5; format: cell-based; conditions: Homo sapiens, PBMC, IL-15 stimulated, read-out: PBMC IL15-pSTAT5 IC50
Method: PBMC IL-15 Induced P-STAT5
Frozen human PBMC (200-250 million cells/vial) was thawed at 37° C. The cells were transferred to 10 mL warm medium in a 50-mL conical tube, and centrifuged at 1,200 RPM at room temperature for 5 min. The supernatant was aspirated. […] After adding 47 ml D-PBS (37° C.) to PBMC/FBS suspension, centrifuging at 1,200 RPM at room temperature for 5 min, and aspirating the supernatant, the cells were resuspended in 20 mL warm RPMI medium. Ninety μL of cell suspension were pipetted per well in a 96-well, deep-well, V-bottom plate, and the plate was incubated at 37° C. for 30 min. […] After adding 0.8 mL staining buffer per well, the plates were centrifuged at 1,200 RPM (Beckman GS-6R or Sorvall Legend) at room temperature for 5 min, and again the supernatant was aspirated using a 8-channel or 12-channel manifold. The plate was vortexed, and 0.35 mL 90% methanol/10% H2O (−20° C.) was added per well, and the plate incubated on ice for 20 min. After again adding 0.8 mL staining buffer per well, the plates were centrifuged at 1,200 RPM (Beckman GS-6R or Sorvall Legend) at room temperature for 5 min, and again the supernatant was aspirated using a 8-channel or 12-channel manifold, and then 0.8 mL Staining buffer was added per well. After once again adding 0.8 mL staining buffer per well, the plates were centrifuged at 1,200 RPM (Beckman GS-6R or Sorvall Legend) at room temperature for 5 min, and again the supernatant was aspirated using a 8-channel or 12-channel manifold. […] Samples of 250 μL/well were transferred to a 96-well U-bottom plate, and the FACS analysis was performed gating on total lymphocytes. Samples were analyzed using a BD Calibur™ or BD FACSCanto™ flow cytometer equipped with the BD High Throughput Sampler.

Point of comparison: `C=CC(=O)N[C@H]1C[C@H](Nc2cnc3[nH]cc(C(=O)NC(C)C)c3n2)C1` [Example 198, 2-{[trans-3-(acryloylamino)cyclobutyl]amino}-N-(propan-2-yl)-5H-pyrrolo[2,3-b]pyrazine-7-carboxamide], IC50 1170 nM. Against it:
- C=CC(=O)N1CCC[C@@H](Nc2ncnc3[nH]cc(-c4cccnc4)c23)C1 [Example 26, 1-[(3R)-3-{[5-(pyridin-3-yl)-7H-pyrrolo[2,3-d]pyrimidin-4-yl]amino}piperidin-1-yl]prop-2-en-1-one] — 4.6-fold lower, 254 nM
- C=CC(=O)N1CCC[C@@H](Nc2nc(Nc3cccnc3)nc3[nH]ccc23)C1 [Example 63, 1-[(3R)-3-{[2-(Pyridin-3-ylamino)-7H-pyrrolo[2,3-d]pyrimidin-4-yl]amino}piperidin-1-yl]prop-2-en-1-one] — within 1.5-fold, 1380 nM
- C=CC(=O)N1CCC[C@](C)(Nc2ncnc3[nH]ccc23)C1 [Example 70, (S)-1-(3-((7H-Pyrrolo[2,3-d]pyrimidin-4-yl)amino)-3-methylpiperidin-1-yl)prop-2-en-1-one] — 4.7-fold higher, 5530 nM
- C#Cc1c[nH]c2ncnc(N3CC[C@H]4CCN(C(=O)C=C)C[C@H]43)c12 [Example 48, 1-[(3aS,7aS)-1-(5-ethynyl-7H-pyrrolo[2,3-d]pyrimidin-4-yl)octahydro-6H-pyrrolo[2,3-c]pyridin-6-yl]prop-2-en-1-one] — 18-fold lower, 65.2 nM

same assay, conditions: IL-15 stimulated, read-out: PBMC IL15-pSTAT5 IC50

Point of comparison: `C=CC(=O)N1C[C@H](Nc2ncnc3[nH]ccc23)C[C@@H](OC)C1` [Example 77, 1-[(3R,5R)-3-Methoxy-5-(7H-pyrrolo[2,3-d]pyrimidin-4-ylamino)piperidin-1-yl]prop-2-en-1-one], IC50 3970 nM. Against it:
- C=CC(=O)N1C[C@@H](C)N(c2cnc3[nH]cc(C(=O)NC(C)C)c3n2)[C@@H](C)C1 [Example 328, 2-[(2R,6S)-4-acryloyl-2,6-dimethylpiperazin-1-yl]-N-(propan-2-yl)-5H-pyrrolo[2,3-b]pyrazine-7-carboxamide] — 4.5-fold lower, 891 nM
- C=CC(=O)N1CCC[C@@H](Nc2ncnc3[nH]cc(-c4ccc(C(=O)NC(C)C)cc4)c23)C1 [Example 29, 4-(4-{[(3R)-1-acryloylpiperidin-3-yl]amino}-7H-pyrrolo[2,3-d]pyrimidin-5-yl)-N-(propan-2-yl)benzamide] — 8.6-fold lower, 464 nM
- C=CC(=O)N1CCC(Nc2cnc3[nH]cc(C(=O)NCC4(O)CCCC[C@@H]4F)c3n2)CC1 (stereo partly drawn) [Example 254, 2-[(1-acryloylpiperidin-4-yl)amino]-N-{[(2S)-2-fluoro-1-hydroxycyclohexyl]methyl}-5H-pyrrolo[2,3-b]pyrazine-7-carboxamide] — 4.7-fold lower, 836 nM
- C=CC(=O)N1CCC(Nc2cnc3[nH]cc(C(=O)NCC4(O)CCC(C)C4)c3n2)CC1 (stereo not shown) [Example 235, 2-[(1-acryloylpiperidin-4-yl)amino]-N-[(1-hydroxy-3-methylcyclopentyl)methyl]-5H-pyrrolo[2,3-b]pyrazine-7-carboxamide] — 2.3-fold lower, 1700 nM
- C=CC(=O)N1CCC(Oc2cnc3[nH]cc(-c4cncnc4)c3n2)CC1 [Example 215, 1-(4-{[7-(pyrimidin-5-yl)-5H-pyrrolo[2,3-b]pyrazin-2-yl]oxy}piperidin-1-yl)prop-2-en-1-one] — 3.2-fold lower, 1260 nM
- C=CC(=O)N1CC[C@@H](Nc2cnc3[nH]cc(C(=O)NC(C)C)c3n2)[C@H](F)C1 [Example 291, 2-{[(3R,4R)-1-acryloyl-3-fluoropiperidin-4-yl]amino}-N-(propan-2-yl)-5H-pyrrolo[2,3-b]pyrazine-7-carboxamide] — 24-fold lower, 168 nM
- C=CC(=O)N1CCC(Nc2cnc3[nH]cc(C(=O)NCC4(O)CCCC4)c3n2)CC1 [Example 232, 2-[(1-acryloylpiperidin-4-yl)amino]-N-[(1-hydroxycyclopentyl)methyl]-5H-pyrrolo[2,3-b]pyrazine-7-carboxamide] — 2.4-fold lower, 1640 nM
- C=CC(=O)N1CCC(Oc2cnc3[nH]cc(-c4cnc(OC)nc4)c3n2)CC1 [Example 219, 1-(4-{[7-(2-methoxypyrimidin-5-yl)-5H-pyrrolo[2,3-b]pyrazin-2-yl]oxy}piperidin-1-yl)prop-2-en-1-one] — 4-fold lower, 987 nM
- C=CC(=O)N1CCC(Nc2cnc3[nH]cc(C(=O)N[C@H](C(C)C)[C@@H](O)C(F)(F)F)c3n2)CC1 [Example 248, 2-[(1-acryloylpiperidin-4-yl)amino]-N-[(2R,3R)-1,1,1-trifluoro-2-hydroxy-4-methylpentan-3-yl]-5H-pyrrolo[2,3-b]pyrazine-7-carboxamide] — 4.4-fold lower, 893 nM
- C=CC(=O)N1CCC[C@@H](Nc2ncnc3[nH]cc(-c4cncc(F)c4)c23)C1 [Example 23, 1-[(3R)-3-{[5-(5-fluoropyridin-3-yl)-7H-pyrrolo[2,3-d]pyrimidin-4-yl]amino}piperidin-1-yl]prop-2-en-1-one] — 21-fold lower, 188 nM
- C=CC(=O)N1CCC(Nc2cnc3[nH]cc(C(=O)N[C@@H]4CCC[C@H]4F)c3n2)CC1 [Example 237, 2-[(1-acryloylpiperidin-4-yl)amino]-N-[(1R,2R)-2-fluorocyclopentyl]-5H-pyrrolo[2,3-b]pyrazine-7-carboxamide] — 50-fold lower, 80.1 nM
- C=CC(=O)N1CCC(Oc2cnc3[nH]cc(-c4cncc(F)c4)c3n2)CC1 [Example 213, 1-(4-{[7-(5-fluoropyridin-3-yl)-5H-pyrrolo[2,3-b]pyrazin-2-yl]oxy}piperidin-1-yl)prop-2-en-1-one] — 12-fold lower, 318 nM
- C=CC(=O)N1CCC(Nc2cnc3[nH]cc(-c4ccncc4F)c3n2)CC1 [Example 200, 1-(4-{[7-(3-fluoropyridin-4-yl)-5H-pyrrolo[2,3-b]pyrazin-2-yl]amino}piperidin-1-yl)prop-2-en-1-one] — 4.8-fold lower, 819 nM
- C=CC(=O)N1CCC(Nc2cnc3[nH]cc(C(=O)NCCCCCCCCC#N)c3n2)CC1 [Example 260, 2-[(1-acryloylpiperidin-4-yl)amino]-N-(8-cyanooctyl)-5H-pyrrolo[2,3-b]pyrazine-7-carboxamide] — 6.9-fold lower, 575 nM
- C=CC(=O)N1CCC(Nc2cnc3[nH]cc(C(=O)NC(CC)C4(O)CCC4)c3n2)CC1 (stereo not shown) [Example 251b, 2-[(1-acryloylpiperidin-4-yl)amino]-N-[1-(1-hydroxycyclobutyl)propyl]-5H-pyrrolo[2,3-b]pyrazine-7-carboxamide] — 2.6-fold lower, 1510 nM
- C=CC(=O)N1CCC(Nc2cnc3[nH]cc(C(=O)NCC4(O)CC[C@@H](C)C4)c3n2)CC1 (stereo partly drawn) [Example 239, 2-[(1-acryloylpiperidin-4-yl)amino]-N-{[(3R)-1-hydroxy-3-methylcyclopentyl]methyl}-5H-pyrrolo[2,3-b]pyrazine-7-carboxamide] — 2.1-fold lower, 1900 nM
- C=CC(=O)N1CCC(Nc2cnc3[nH]cc(-c4cccc(C(=O)NC)c4)c3n2)CC1 [Example 204, 3-{2-[(1-acryloylpiperidin-4-yl)amino]-5H-pyrrolo[2,3-b]pyrazin-7-yl}-N-methylbenzamide] — 4.6-fold lower, 855 nM
- C=CC(=O)N1CCN(c2cnc3[nH]cc(C(=O)NC(C)C)c3n2)C2(CC2)C1 [Example 313, 2-(7-acryloyl-4,7-diazaspiro[2.5]oct-4-yl)-N-(propan-2-yl)-5H-pyrrolo[2,3-b]pyrazine-7-carboxamide] — 5.6-fold lower, 706 nM
- C=CC(=O)N1CCC(Oc2cnc3[nH]cc(-c4ccnc(F)c4)c3n2)CC1 [Example 222, 1-(4-{[7-(2-fluoropyridin-4-yl)-5H-pyrrolo[2,3-b]pyrazin-2-yl]oxy}piperidin-1-yl)prop-2-en-1-one] — 5.2-fold lower, 757 nM
- C=CC(=O)N1CCC(Nc2cnc3[nH]cc(C(=O)N[C@H]4CCC[C@H](CC#N)C4)c3n2)CC1 [Example 262, 2-[(1-acryloylpiperidin-4-yl)amino]-N-[(1S,3S)-3-(cyanomethyl)cyclohexyl]-5H-pyrrolo[2,3-b]pyrazine-7-carboxamide] — 3-fold lower, 1330 nM
- C=CC(=O)N1C[C@H](Nc2ncnc3[nH]ccc23)CC[C@@H]1C [Example 5, 1-((2S,5R)-5-((7H-pyrrolo[2,3-d]pyrimidin-4-yl)amino)-2-methylpiperidin-1-yl)prop-2-en-1-one] — 77-fold lower, 51.7 nM
- C=CC(=O)N1CCC(Oc2cnc3[nH]cc(-c4cncc(C#N)c4)c3n2)CC1 [Example 225, 5-{2-[(1-acryloylpiperidin-4-yl)oxy]-5H-pyrrolo[2,3-b]pyrazin-7-yl}pyridine-3-carbonitrile] — within 1.5-fold, 2910 nM
- C=CC(=O)N1CCC(Nc2cnc3[nH]cc(C(=O)N[C@@H](C(C)C)[C@H](O)C(F)(F)F)c3n2)CC1 [Example 252, 2-[(1-acryloylpiperidin-4-yl)amino]-N-[(2S,3S)-1,1,1-trifluoro-2-hydroxy-4-methylpentan-3-yl]-5H-pyrrolo[2,3-b]pyrazine-7-carboxamide] — 5.9-fold lower, 673 nM
- C=CC(=O)N1CCC(Nc2cnc3[nH]cc(C(=O)NCCCC#N)c3n2)CC1 [Example 242, 2-[(1-acryloylpiperidin-4-yl)amino]-N-(3-cyanopropyl)-5H-pyrrolo[2,3-b]pyrazine-7-carboxamide] — 3.6-fold lower, 1100 nM
- C=CC(=O)N1CCC(Nc2cnc3[nH]cc(C(=O)NCC4(O)CCC4)c3n2)CC1 [Example 231, 2-[(1-acryloylpiperidin-4-yl)amino]-N-[(1-hydroxycyclobutyl)methyl]-5H-pyrrolo[2,3-b]pyrazine-7-carboxamide] — within 1.5-fold, 3620 nM
